Measurements reported in PubChem BioAssay (NCI).
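Interpolation was linear, between the two tested concentrations surrounding the appropriate level; five concentrations were tested over 48 hours in 96-well plates. The concentration for full growth arrest is given as TGI.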 Where a SMILES comes first, the peptide text is derived from it. The star is where a group is joined. Ethyl(2-NMe3+) = C[N+](C)(C)CC*; Boc = CC(C)(C)OC(=O)*

What was measured:
Experiment in all cases: inhibition of tumour cell growth, NCI panel, 48 h
A498 renal = system: A498 renal
ACHN renal = system: ACHN renal
CCRF-CEM leukemia = system: CCRF-CEM leukemia
HOP-92 NSCLC = system: HOP-92 NSCLC
MOLT-4 leukemia = system: MOLT-4 leukemia
SNB-19 CNS = system: SNB-19 CNS
NCI-H522 lung = system: NCI-H522 lung

Row | Compound | TGI (A498 renal) [µM] | TGI (ACHN renal) [µM] | TGI (CCRF-CEM leukemia) [µM] | TGI (HOP-92 NSCLC) [µM] | TGI (MOLT-4 leukemia) [µM] | TGI (SNB-19 CNS) [µM] | TGI (NCI-H522 lung) [µM]
1 | C/C(=N\NC(=O)c1ccncc1)c1ccccc1F | > 10 | > 10 | > 10 | > 10 | > 10 | > 10 | 
2 | Cc1ccc(C2=C(C#N)C(=O)N3CCN=C3S2)cc1 |  | > 100 | > 100 | > 100 | > 100 | > 100 | > 100
3 | COC(=O)C1(C(=O)OC)Cc2ccc(C)cc2C2=C1C(=O)c1ccccc1C2=O |  | 31.7 | 49.4 | 38.7 | 31.7 | > 100 | 32
4 | CCN(CC)c1c(-c2c(N(CC)CC)c(OC(C)=O)c3sccn3c2=O)c(=O)n2ccsc2c1OC(C)=O | > 100 | > 100 | > 100 | > 100 | > 100 | > 100 | 
5 | O=C(Nc1ccccc1)n1[nH]c(=O)n(-c2ccccc2)c1=O | > 100 | > 100 | > 100 | > 100 |  | > 100 | > 100
6 | Cc1ccc(C(=O)Nc2ccc(CP(=O)(O)O)cc2CP(=O)(O)O)cc1NC(=O)c1cccc(NC(=O)Nc2cccc(C(=O)Nc3cc(C(=O)Nc4ccc(CP(=O)(O)O)cc4CP(=O)(O)O)ccc3C)c2)c1 | > 100 | > 100 | > 100 |  | > 100 |  | > 100
7 | CC1(C)C/C(=N/O)c2c(nc3ccc4ccccc4c3c2-c2ccc(Cl)cc2)C1 | 39.6 | 19.4 | 27.6 | 42.2 | 52.6 | > 100 | 28.6
8 | COc1ccc(C2=NN(C(N)=S)C(c3ccccc3)C2)cc1 (stereo unspecified) | 70.8 | > 100 | > 100 | > 100 | > 100 | > 100 | 84.1
9 | Cc1ccc(/C=C2\CN(C)CC3C2=NN(c2ccccc2)C3c2ccc(C)cc2)cc1 (stereo unspecified) | > 100 | > 100 | 95.7 | > 100 | > 100 | > 100 | > 100
10 | CC(=O)N1C(NN(C)C)CCN1c1ccccc1 (stereo unspecified) |  |  | > 10 | > 10 | > 10 |  | 
11 | O=[N+]([O-])c1cc2c(c([N+](=O)[O-])c1)NCc1ccccc1O2 | > 100 | > 100 | > 100 | > 100 | > 100 |  | > 100
12 | COc1ccc(OC2OC(COC(c3ccccc3)(c3ccc(OC)cc3)c3ccc(OC)cc3)C(O)C(O)C2O)cc1 (stereo unspecified) | 25.3 | 14.3 | 5.39 |  | 4.55 | 26.7 | 11.7
13 | Cc1ccc(C2SC(N)=Nc3c2c(C)nn3C(=O)c2ccccc2O)cc1 (stereo unspecified) | > 10 | > 10 | > 10 | 5.02 | > 10 | > 10 | 
14 | C=CCN1C(=O)/C(=C/c2ccc(C)cc2)NC1=S | > 100 | > 100 | > 100 | > 100 | > 100 | > 100 | > 100
15 | O=S(Nc1ccccc1)c1ccc(Cl)c(Cl)c1 (stereo unspecified) |  | > 100 | > 100 |  | > 100 | > 100 | > 100
16 | C=CCc1ccccc1CC1(OCC)OC(=O)c2ccccc21 (stereo unspecified) | > 100 | > 100 |  | > 100 | > 100 | > 100 | > 100
17 | S=C1CSc2c(ccc3ccccc23)N1 |  | > 100 | > 100 |  | > 100 | > 100 | > 100
18 | CC1OC(OC2C(OC(=O)[C@@H]3CC(C)(C)C[C@@H]4C5=CC[C@@H]6[C@@]7(C)C[C@H](O)[C@H](OC8OC(CO)C(O)C(O)C8O)[C@@](C)(CO)C7[C@H](O)C[C@@]6(C)[C@]5(C)C[C@@H](O)[C@H]43)OCC(O)C2O)C(O)C(O)C1O (stereo partly specified) |  | > 15 | > 15 | > 15 | > 15 | > 15 | > 15
19 | Cc1cc2nc(N3C(=O)/C(=C/c4ccccc4S)N=C3c3ccccc3)sc2cc1C | 55.1 | > 100 | 46.6 | 82.8 | > 100 | > 100 | 
20 | CN(N)/N=N/c1nc[nH]c1[N+](=O)[O-] | > 100 | > 100 | 33 |  | 54.6 |  | > 100
21 | Cc1ccc(N(C(=O)Nc2ccc(F)c(Cl)c2)C2=NCC(C)S2)cc1 (stereo unspecified) | > 100 | > 100 | > 100 |  | > 100 | > 100 | 

Row | Compound | TGI (A498 renal) [µM] | TGI (ACHN renal) [µM] | TGI (CCRF-CEM leukemia) [µM] | TGI (HOP-92 NSCLC) [µM] | TGI (MOLT-4 leukemia) [µM] | TGI (SNB-19 CNS) [µM] | TGI (NCI-H522 lung) [µM]
22 | COC(=O)c1c2c(cc3c1CC1(Cc4ccc(C(C)=O)cc4C1)C3)CCC2 (stereo unspecified) | > 100 | > 100 | > 100 | > 100 | 86.5 |  | > 100
23 | Cc1c2c(Cl)c3c(c(Cl)c2c(C)c2c(Cl)c4c(c(Cl)c12)C(c1ccccc1)(c1ccccc1)C4(c1ccccc1)c1ccccc1)C(c1ccccc1)(c1ccccc1)C3(c1ccccc1)c1ccccc1 | > 100 | > 100 | > 100 | > 100 | > 100 | > 100 | > 100
24 | C#C[C@]1(O)CC[C@H]2[C@@H]3CCC4=C/C(=N/NC(=O)c5cccc6cc7ccccc7nc56)CC[C@@H]4[C@H]3CC[C@@]21CC | > 100 | > 100 | > 100 | > 100 | > 100 | > 100 | 
25 | c1ccc2c(c1)cc1c3[nH]c4ccccc4c3ccn21 |  | > 10 | > 10 | > 10 | > 10 | > 10 | > 10
26 | COC(=O)CN1SC2(SC13C(C)(C)C(=O)C3(C)C)C(C)(C)C(=O)C2(C)C | > 100 | > 100 | 32.8 | 21.3 | > 100 | > 100 | 
27 | CC(=O)N(C(C)=O)n1c(-c2ccccc2)n[nH]c1=O |  | > 100 | > 100 | > 100 | > 100 | > 100 | > 100
28 | CC(NC(=O)C(Cc1ccc(OCC[N+](C)(C)C)cc1)NC(=O)OC(C)(C)C)C(=O)NC(Cc1ccccc1)C(=O)NCC(N)=O (stereo unspecified) (Boc-Y(Ethyl(2-NMe3+))AFG-NH2; configuration not given here) | 33.3 | > 100 |  | 29.6 | > 100 | 34.3 | > 100
29 | CN(C(=O)C1CCCCCC1=O)c1ccccc1Cl (stereo unspecified) | > 100 | > 100 |  | > 100 | > 100 | > 100 | > 100
30 | COc1cc([C@H]2CC(=O)C[C@H](c3cc(OC)c(OC)c(OC)c3)C23C(=O)c2ccccc2C3=O)cc(OC)c1OC |  | > 100 |  | > 100 | > 100 | > 100 | 95.1
31 | COc1ccc(/C=C2\N=C(SC)N(CN3CCCCC3)C2=O)cc1 | > 100 | > 100 |  | > 100 | > 100 | > 100 | > 100
32 | CC(C)=c1sc(=C(C)C)c2c1=NC(C)(C)N=2 | > 100 | > 100 | > 100 |  | > 100 | > 100 | > 100
33 | O=c1n(-c2ccccc2)c(=O)n2n1C1Cc3ccccc3C12 (stereo unspecified) | > 100 | > 100 | > 100 | > 100 | > 100 | > 100 | 
34 | NC1CC(Cl)c2c(Cl)sc(Cl)c21 (stereo unspecified) | > 100 | > 100 | > 100 | > 100 | > 100 |  | 0.049
35 | CC1(c2cccc(Cl)c2)CC(c2cccc(Cl)c2)=C(C#N)C(=C(C#N)C#N)N1 (stereo unspecified) | 39.3 | 31.9 | > 100 | 21.4 | 57.3 | 39.9 | 
36 | COCn1cnc2c(=O)n(-c3ccc(OC)cc3)c(=S)n(-c3ccc(OC)cc3)c21 | > 100 | > 100 | > 100 |  | > 100 |  | > 100
37 | Nc1[nH]c(=S)c2c(N)n[nH]c2c1C(=O)Nc1ccccc1 | > 100 |  |  | > 100 | > 100 | > 100 | > 100
38 | NC(=O)C1Cc2cc3c(cc21)OCO3 (stereo unspecified) |  | > 100 |  |  |  | > 100 | > 100
39 | COc1cccc(-c2nc3ccccc3c(=O)[nH]2)c1OC | > 100 | > 100 | > 100 |  | > 100 | > 100 | 
40 | COc1ccc2c(c1)-c1[nH]c3ccc(OC)cc3c1CC2 |  | 36.5 | 80.6 | 36.2 | 54.4 | 30.1 | 17.6
41 | CN1C(=O)C(c2c[nH]c3ccccc23)N(C)C(=O)C1c1c[nH]c2ccccc12 (stereo unspecified) |  | > 100 | > 100 | > 100 | > 100 |  | > 100
42 | CC(C)(C)OC(=O)N1CCC2(C)CC(=O)CC=C12 (stereo unspecified) |  | > 100 | > 100 | > 100 | > 100 | > 100 | > 100
